Columns and labels:
[1] = cited from earlier work
[2] = cited from earlier work; remark: listed apart in the source
[3] = Dynamic visual analysis (DVA) of ICG NIR fluorescence intensity, rectal lesion versus healthy background tissue; settings: for initial uptake of ICG relative to background tissue: 0.25 mg per kg intravenously, initial phase; for washout of contrast agent: at 25 to 30 minutes

washout of contrast agent ([3]; benign lesions): most of the ICG tends to washout | initial uptake of ICG relative to background tissue ([3]; cancerous tissue): a definite lag in the initial uptake | washout of contrast agent ([3]; cancerous tissue): retains it for longer
Structure (SMILES): CC1(C)C(/C=C/C=C/C=C/C=C2\N(CCCCS(=O)(=O)O)c3ccc4ccccc4c3C2(C)C)=[N+](CCCCS(=O)(=O)[O-])c2ccc3ccccc3c21 [ICG, indocyanine green]
plasma protein binding ([1]; following intravenous injection): rapidly bound to plasma proteins with minimal leakage into the interstitium | time of excretion by the liver in bile after injection ([1]; intravenous injection): about 8 min | water solubility [2]: water-soluble but relatively hydrophobic | initial uptake of ICG relative to background tissue ([3]; benign lesions): either synchronous with the background tissue or was ahead of the background tissue
